Experimental findings from patent US6340694B1, “Diarylbenzopyran derivatives as cyclooxygenase-2 inhibitors” (Pacific Corporation, priority 1998, dated 2002) are described below.

One data set concerns the target T1, COX-1 (Mus musculus, UniProt P22437).
T1 construct: there is no pre-treatment of aspirin and LPS in the adhesion of macrophage; endogenous in cells; host or cells: peritoneal macrophages of C57BL/6 mouse, without aspirin and LPS pre-treatment
T1 sequence (P22437 27-602): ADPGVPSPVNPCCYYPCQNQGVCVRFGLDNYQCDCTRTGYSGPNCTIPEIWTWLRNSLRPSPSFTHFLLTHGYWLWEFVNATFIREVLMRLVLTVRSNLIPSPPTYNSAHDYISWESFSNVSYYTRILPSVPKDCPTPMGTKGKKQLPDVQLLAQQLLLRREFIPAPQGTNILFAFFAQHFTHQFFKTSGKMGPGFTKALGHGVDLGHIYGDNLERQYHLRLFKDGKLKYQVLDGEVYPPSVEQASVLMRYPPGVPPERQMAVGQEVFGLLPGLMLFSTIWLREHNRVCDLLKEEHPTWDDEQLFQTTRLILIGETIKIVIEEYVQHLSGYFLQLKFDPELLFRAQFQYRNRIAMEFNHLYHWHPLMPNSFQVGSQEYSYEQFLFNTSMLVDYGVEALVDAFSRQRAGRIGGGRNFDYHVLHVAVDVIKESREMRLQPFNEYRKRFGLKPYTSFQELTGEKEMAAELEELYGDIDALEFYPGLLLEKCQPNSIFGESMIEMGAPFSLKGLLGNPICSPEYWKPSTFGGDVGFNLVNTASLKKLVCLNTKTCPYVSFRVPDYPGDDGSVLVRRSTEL
The experiment in a line: Evaluation of COX-1's inhibition efficacy (macrophages without aspirin and LPS pre-treatment). As to conditions: for inhibition at 10 µg/mL: 10 μg/ml; for inhibition at 1 µg/mL: 1 μg/ml. In kind it is cell-based, C57BL/6 mouse. Here is the method: Regarding the compounds in the above Examples and indomethacin, the inhibition efficacy of COX-2 and COX-1 are being measured by the following two methods.
After cleaning C57BL/6 mouse's abdomen by 70% EtOH, the skin of mouse's abdomen was eliminated cautiously not to harm peritomeum and 5 ml of cold PBS was poured into the abdominal cavity and in certain times later macrophage-bleeding abdominal-liquid was collected by syringe. By adding RPMI-1640 badge containing penicillin(100 unit/mt) and streptomycin([…]) to cell pellet obtained by centrifugation of collected liquid about 5 minutes in 1500 rpm, it was disperesed and also COX-1 existing in the cell was inactivated by treating with 500 μM aspirin. After putting 1 ml cell suspension having cell number of 1×10^6 cells/mu into each 24-well microtiter plates, macrophages were adhered to the bottom of plate by culturing in the condition of 5% CO2/95% O2, at a temperature of 37° C. for 2 hours. Other cells not being adhered to were eliminated by washing two times with PBS. The purity of macrophages obtained through this process was identified by differential counting. After adding RPMI-1640 badge(normally 5×10^5 cell/ml) containing 3% right fetal blood serum to macrophage and treating it with LPS(lipopolysaccharide) to make final concentration as 10 μg/ml, it was cultured in the condition of 5% CO2, at a temperature of 37° C. for 16 hours. After inducing COX-2 by LPS, the cell culture medium was eliminated and macrophages was washed two times with PBS. And 1 ml of RRPI-1640 badge was added to each well again and after treating them with sample with appropriate concentration, they were cultured at a temperature of 37i É for 10 minutes. And then treated them with arachidonic acid to make their final concentration as 10 μM and cultured them additional 10 minutes, all the supernatant liquid of reaction was obtained. The amount of PGE2 produced in the supernatant liquid of reaction was determined by the PGE2 radioimmuno assay. The 100% COX-2's activation is referenced by the difference of the amount of PGE2 produced in the supernatant liquid of reaction between with 10 μM arachidonic acid treatment and without 10 μM arachidonic acid treatment.
2. Evaluation of COX-1's Inhibition Efficacy
Following the same procedure as the above evaluation of COX-2's inhibition efficacy, but there is no pre-treatment of aspirin and LPS in the adhesion of macrophage.

A further data set deals with T2, COX-2 (Mus musculus, UniProt Q05769).
T2 construct: endogenous in cells; host or cells: peritoneal macrophages of C57BL/6 mouse, aspirin-pretreated, LPS-induced
T2 sequence (Q05769 18-604): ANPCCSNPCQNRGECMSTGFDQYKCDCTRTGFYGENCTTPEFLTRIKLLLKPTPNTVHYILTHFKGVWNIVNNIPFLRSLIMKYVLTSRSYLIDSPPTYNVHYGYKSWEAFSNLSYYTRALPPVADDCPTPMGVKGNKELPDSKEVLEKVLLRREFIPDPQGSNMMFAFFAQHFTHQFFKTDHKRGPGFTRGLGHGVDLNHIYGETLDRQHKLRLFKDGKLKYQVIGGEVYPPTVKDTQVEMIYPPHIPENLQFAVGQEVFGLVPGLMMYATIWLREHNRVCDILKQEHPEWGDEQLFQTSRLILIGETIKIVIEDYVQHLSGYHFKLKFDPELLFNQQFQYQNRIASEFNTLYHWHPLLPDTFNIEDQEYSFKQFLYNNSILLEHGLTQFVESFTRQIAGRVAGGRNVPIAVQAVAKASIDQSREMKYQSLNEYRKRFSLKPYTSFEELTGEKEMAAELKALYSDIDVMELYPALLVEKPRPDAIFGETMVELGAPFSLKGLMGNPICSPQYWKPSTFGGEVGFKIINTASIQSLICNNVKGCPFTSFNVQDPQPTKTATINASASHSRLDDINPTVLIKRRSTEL
The experiment in a line: Evaluation of COX-2's inhibition efficacy (PGE2 radioimmuno assay, LPS-induced, aspirin-pretreated peritoneal macrophages). The format is cell-based, C57BL/6 mouse. As to conditions: for inhibition at 1 µg/mL: 1 μg/ml; for inhibition at 10 µg/mL: 10 μg/ml; for inhibition at 0.1 µg/mL: 0.1 μg/ml. Here is the method:
Regarding the compounds in the above Examples and indomethacin, the inhibition efficacy of COX-2 and COX-1 are being measured by the following two methods. […] Evaluation of COX-2's Inhibition Efficacy (J. Pharmacol. Exp. […] After cleaning C57BL/6 mouse's abdomen by 70% EtOH, the skin of mouse's abdomen was eliminated cautiously not to harm peritomeum and 5 ml of cold PBS was poured into the abdominal cavity and in certain times later macrophage-bleeding abdominal-liquid was collected by syringe. […] After putting 1 ml cell suspension having cell number of 1×10^6 cells/mu into each 24-well microtiter plates, macrophages were adhered to the bottom of plate by culturing in the condition of 5% CO2/95% O2, at a temperature of 37° C. for 2 hours. Other cells not being adhered to were eliminated by washing two times with PBS. The purity of macrophages obtained through this process was identified by differential counting. […] After inducing COX-2 by LPS, the cell culture medium was eliminated and macrophages was washed two times with PBS. And 1 ml of RRPI-1640 badge was added to each well again and after treating them with sample with appropriate concentration, they were cultured at a temperature of 37i É for 10 minutes. And then treated them with arachidonic acid to make their final concentration as 10 μM and cultured them additional 10 minutes, all the supernatant liquid of reaction was obtained. The amount of PGE2 produced in the supernatant liquid of reaction was determined by the PGE2 radioimmuno assay.

The term melting point denotes the temperature of the solid-liquid transition. One may read the inhibition as how much of the control response was suppressed.

`COc1ccc(-c2c(-c3ccc(S(C)(=O)=O)cc3)oc3ccccc3c2=O)cn1` [Example 18, 3-(2-Methoxy-5-pyridinyl)-2-(4-(methylsulfonyl)phenyl)-4H-1-benzopyran-4-one] registered a melting point of 226 to 227 °C. On COX-1, the inhibition at 10 µg/mL was 18%. Moreover, at COX-2, the inhibition at 1 µg/mL worked out at 51% and the inhibition at 10 µg/mL is 86%.
With `NS(=O)(=O)c1ccc(-c2oc3ccccc3c(=O)c2-c2ccccc2)cc1` [Example 53, 2-(4-(Aminosulfonyl)phenyl)-3-phenyl-4H-1-benzopyran-4-one], the melting point fell in the range of 218 to 220 °C. At COX-1, the inhibition at 1 µg/mL stood at 52% and the inhibition at 10 µg/mL amounted to 61%. At COX-2, the inhibition at 0.1 µg/mL was determined as 76%, the inhibition at 1 µg/mL is 90% and the inhibition at 10 µg/mL was found to be 92%.
For the compound `CS(=O)(=O)c1ccc(-c2oc3ccccc3c(=O)c2-c2cccc([N+](=O)[O-])c2)cc1` [Example 4, 2-(4-(methylsulfonyl)phenyl)-3-(3-nitrophenyl)-4H-1-benzopyran-4-one], the melting point was in the range of 223 to 224 °C. Also, on COX-1, the inhibition at 10 µg/mL is less than 5%. For the same compound, on COX-2, the inhibition at 10 µg/mL is less than 5%.
As to `CS(=O)(=O)c1ccc(-c2oc3ccccc3c(=S)c2-c2cccc(Cl)c2)cc1` [Example 40, 3-(3-Chlorophenyl)-2-(4-(methylsulfonyl)phenyl)-4H-1-benzopyran-4-thione], the melting point lay within 196 to 198 °C. Also, the inhibition at 10 µg/mL at COX-1 was less than 5%. Besides, on COX-2, the inhibition at 0.1 µg/mL was 6%, the inhibition at 1 µg/mL was found to be 29% and the inhibition at 10 µg/mL was determined as 69%.
For the compound `NS(=O)(=O)c1ccc(-c2oc3ccccc3c(=O)c2-c2ccc(F)cc2)cc1` [Example 52, 2-(4-(Aminosulfonyl)phenyl)-3-(4-fluorophenyl)-4H-1-benzopyran-4-one], the melting point fell in the range of 267 to 268 °C. Besides, at COX-1, the inhibition at 1 µg/mL came to 62% and the inhibition at 10 µg/mL was 67%. Also, on COX-2, the inhibition at 0.1 µg/mL amounted to 73%, the inhibition at 1 µg/mL stood at 96% and the inhibition at 10 µg/mL turned out to be 99%.
In the case of `CS(=O)(=O)c1ccc(-c2oc3ccccc3c(=O)c2-c2ccc(C(F)(F)F)nc2)cc1` [Example 21, 2-(4-(Methylsulfonyl)phenyl)-3-(2-trifluoromethyl-5-pyridinyl)-4H-1-benzopyran-4-one], the melting point is 215 to 217 °C. Besides, the inhibition at 10 µg/mL on COX-1 was less than 5%. At COX-2, the inhibition at 1 µg/mL came out at 35% and the inhibition at 10 µg/mL was 55%.
As to `Cc1ccccc1-c1c(-c2ccc(S(C)(=O)=O)cc2)oc2ccccc2c1=S` [Example 41, 3-(2-Methylphenyl)-2-(4-(methylsulfonyl)phenyl)-4H-1-benzopyran-4-thione], the melting point came to 234 °C. The inhibition at 10 µg/mL at COX-1 was less than 5%. Further, at COX-2, the inhibition at 0.1 µg/mL was less than 5%, the inhibition at 1 µg/mL worked out at 36% and the inhibition at 10 µg/mL came to 96%.
On to `COc1ccc(-c2c(-c3ccc(S(N)(=O)=O)cc3)oc3ccccc3c2=O)cc1` [Example 55, 2-(4-(Aminosulfonyl)phenyl)-3-(4-methoxyphenyl)-4H-1-benzopyran-4-one], for which the melting point is 252 to 254 °C. Besides, on COX-1, the inhibition at 1 µg/mL worked out at 66% and the inhibition at 10 µg/mL is 84%. Further, at COX-2, the inhibition at 1 µg/mL was 90% and the inhibition at 10 µg/mL was determined as 100%.
Consider `CS(=O)(=O)c1ccc(-c2oc3ccccc3c(=O)c2-c2ccccc2)cc1` [Example 2, 2-(4-(Methylsulfonyl)phenyl)-3-phenyl-4H-1-benzopyran-4-one], for which the melting point was 208 to 209 °C. On COX-1, the inhibition at 10 µg/mL was less than 5%. Moreover, on COX-2, the inhibition at 0.1 µg/mL is 34%, the inhibition at 1 µg/mL came to 68% and the inhibition at 10 µg/mL worked out at 81%.
Turning to `CS(=O)(=O)c1ccc(-c2oc3ccccc3c(=O)c2-c2cncc(Br)c2)cc1` [Example 19, 3-(5-Bromo-3-pyridinyl)-2-(4-(methylsulfonyl)phenyl)-4H-1-benzopyran-4-one], the melting point lay in the range of 197 to 199 °C. Moreover, the inhibition at 10 µg/mL at COX-1 was found to be 11%. In addition, at COX-2, the inhibition at 1 µg/mL was determined as 18% and the inhibition at 10 µg/mL stood at 35%.
The compound `NS(=O)(=O)c1ccc(-c2oc3ccc(F)cc3c(=O)c2-c2cccc(F)c2)cc1` [Example 51, 2-(4-(Aminosulfonyl)phenyl)-6-fluoro-3-(3-fluorophenyl)-4H-1-benzopyran-4-one] registered a melting point of 257 to 258 °C. For the same compound, the inhibition at 10 µg/mL on COX-1 was determined as 6%. Also, at COX-2, the inhibition at 0.1 µg/mL turned out to be 56%, the inhibition at 1 µg/mL came to 83% and the inhibition at 10 µg/mL came out at 100%.
Consider `NS(=O)(=O)c1ccc(-c2oc3ccccc3c(=O)c2-c2ccc(Cl)c(Cl)c2)cc1` [Example 57, 2-(4-(Aminosulfonyl)phenyl)-3-(3,4-dichlorophenyl)-4H-1-benzopyran-4-one], for which the melting point was in the range of 215 to 217 °C. Further, the inhibition at 10 µg/mL on COX-1 was determined as 75%. On COX-2, the inhibition at 0.1 µg/mL stood at 48% and the inhibition at 1 µg/mL turned out to be 96%.
`CS(=O)(=O)c1ccc(-c2oc3ccccc3c(=O)c2-c2ccc(C=O)cc2)cc1` [Example 9, 3-(4-Formylphenyl)-2-(4-(methylsulfonyl)phenyl)-4H-1-benzopyran-4-one] showed a melting point of 189 to 190 °C. For the same compound, the inhibition at 10 µg/mL at COX-1 is less than 5%. Further, at COX-2, the inhibition at 1 µg/mL was less than 5% and the inhibition at 10 µg/mL was 29%.
